Common to all, as to assay: Growth inhibitory activity of compounds on BaF3 cell lines stably transfected with kinase (MTS, 48 h)
What all share (type): cell-based

The target in assay [1] is T1, various mutants of kinase EGFR (BaF3 cell lines stably transfected with kinase) (Homo sapiens, UniProt P00533, L858R).
T1 construct: expressed in transfected cells; host or cells: BaF3
The settings on record: BaF3 cells stably transfected with EGFR L858R, read-out: IC50, growth inhibition, L858R. Here is the method: (§1) The activity of compounds against various mutants of kinase EGFR was evaluated by their effect of inhibiting growth of BaF3 cell lines stably transfected with kinase. The specific test method was given as follows:
(§2) 1) Culture medium: DMEM (Dulbecco’s modified eagle medium) or RPMI 1640 (containing 10% fetal bovine serum, 100 µg/mL ampicillin, 100 µg/mL streptomycin).
(§3) 2) Reagent: MTS reaction solution (containing 2 mg/mL of MTS [3-(4,5-dimethylthiazol-2-yl)-5-(3-carboxymethoxyphenyl)-2-(4-sulfophenyl)-2H-tetrazoliu m, inner Salt]; 100 µg/mL of PES ([…])).
(§4) 3) Compound test: cells were incubated into a 96-well culture plate, the volume of cytosol was 90 µL, and then 10 µL of the compound at each gradient concentration was added. That is, the highest concentration was 10 µM, which was diluted stepwise by ⅓, and 8 concentration points were set in total; 0.1% DMSO (dimethyl sulfoxide) was contained in the system. The cell plate with uniformly mixed compound was cultured in a cell culture incubator (37° C.; 5% CO2) for 48 h, then 20 µL of MTS reaction solution was added, uniformly mixed and incubated in the cell culture incubator (37° C.; 5% CO2) for 1-4 h. OD values at 490 nm were measured by a microplate reader (VARIOSKAN FLASH, Thermo). Two parallels were set in each group of experiments, with 0.1% (a final concentration) DMSO as a negative control, and a culture medium without cells and compounds as a blank control. The cell growth inhibition rate was calculated by the following formula: […]
(§5) 4) IC50 calculation: The semi-inhibitory concentration of the compounds acting on cells was calculated using GradPad Prism 5 software according to the measured cell growth inhibition rate.

Assay [2] deals with T2, various mutants of kinase EGFR (BaF3 cell lines stably transfected with kinase) (Homo sapiens, UniProt P00533, C797S/L858R/T790M).
T2 construct: expressed in transfected cells; host or cells: BaF3
T2 sequence (P00533 25-1210 T790M/C797S/L858R): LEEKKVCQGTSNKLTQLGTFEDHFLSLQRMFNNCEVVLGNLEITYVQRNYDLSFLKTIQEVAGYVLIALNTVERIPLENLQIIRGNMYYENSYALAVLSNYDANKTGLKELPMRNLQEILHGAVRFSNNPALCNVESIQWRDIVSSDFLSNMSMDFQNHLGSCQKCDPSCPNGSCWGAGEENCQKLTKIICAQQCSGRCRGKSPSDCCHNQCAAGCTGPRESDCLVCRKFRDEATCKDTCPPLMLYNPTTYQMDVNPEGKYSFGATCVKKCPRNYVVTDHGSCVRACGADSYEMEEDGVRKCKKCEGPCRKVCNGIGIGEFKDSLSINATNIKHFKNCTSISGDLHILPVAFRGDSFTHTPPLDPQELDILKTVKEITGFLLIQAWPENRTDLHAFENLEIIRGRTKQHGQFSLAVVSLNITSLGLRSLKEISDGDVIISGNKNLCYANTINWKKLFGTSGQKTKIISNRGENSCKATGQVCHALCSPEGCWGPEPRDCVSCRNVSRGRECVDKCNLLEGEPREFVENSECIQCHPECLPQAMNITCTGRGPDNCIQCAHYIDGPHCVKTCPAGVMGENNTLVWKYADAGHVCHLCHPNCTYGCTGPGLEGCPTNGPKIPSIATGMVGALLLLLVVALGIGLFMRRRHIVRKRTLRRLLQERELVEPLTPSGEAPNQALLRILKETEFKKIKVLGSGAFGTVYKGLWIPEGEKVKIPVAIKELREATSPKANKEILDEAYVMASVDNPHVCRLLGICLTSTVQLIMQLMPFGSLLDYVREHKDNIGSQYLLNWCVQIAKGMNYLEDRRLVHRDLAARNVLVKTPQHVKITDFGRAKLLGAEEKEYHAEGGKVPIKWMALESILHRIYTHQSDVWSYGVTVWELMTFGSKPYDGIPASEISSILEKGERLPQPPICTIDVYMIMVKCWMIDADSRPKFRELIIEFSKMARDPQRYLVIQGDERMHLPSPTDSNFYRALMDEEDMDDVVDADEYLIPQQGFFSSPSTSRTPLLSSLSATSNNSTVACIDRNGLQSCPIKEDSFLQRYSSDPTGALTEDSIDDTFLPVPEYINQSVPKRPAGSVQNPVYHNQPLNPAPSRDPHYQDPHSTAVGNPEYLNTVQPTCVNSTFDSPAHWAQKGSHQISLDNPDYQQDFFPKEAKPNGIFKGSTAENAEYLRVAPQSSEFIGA
The settings on record: BaF3 cells stably transfected with EGFR L858R/T790M/C797S, read-out: IC50, growth inhibition, L858R/T790M/C797S. The protocol:
as §1, §2, §3, §4, §5

In assay [3] the target is T3, various mutants of kinase EGFR (BaF3 cell lines stably transfected with kinase) (Homo sapiens, UniProt P00533, T790M, form not given).
T3 construct: other: BaF3 cells stably transfected with EGFR Δ19Del/T790M; MTS, 48 h; other: BaF3 cell line stably transfected with EGFR Δ19Del/T790M; MTS, 48
T3 sequence (P00533 with tags, fused parts or gaps DEL746-750/T790M, form open): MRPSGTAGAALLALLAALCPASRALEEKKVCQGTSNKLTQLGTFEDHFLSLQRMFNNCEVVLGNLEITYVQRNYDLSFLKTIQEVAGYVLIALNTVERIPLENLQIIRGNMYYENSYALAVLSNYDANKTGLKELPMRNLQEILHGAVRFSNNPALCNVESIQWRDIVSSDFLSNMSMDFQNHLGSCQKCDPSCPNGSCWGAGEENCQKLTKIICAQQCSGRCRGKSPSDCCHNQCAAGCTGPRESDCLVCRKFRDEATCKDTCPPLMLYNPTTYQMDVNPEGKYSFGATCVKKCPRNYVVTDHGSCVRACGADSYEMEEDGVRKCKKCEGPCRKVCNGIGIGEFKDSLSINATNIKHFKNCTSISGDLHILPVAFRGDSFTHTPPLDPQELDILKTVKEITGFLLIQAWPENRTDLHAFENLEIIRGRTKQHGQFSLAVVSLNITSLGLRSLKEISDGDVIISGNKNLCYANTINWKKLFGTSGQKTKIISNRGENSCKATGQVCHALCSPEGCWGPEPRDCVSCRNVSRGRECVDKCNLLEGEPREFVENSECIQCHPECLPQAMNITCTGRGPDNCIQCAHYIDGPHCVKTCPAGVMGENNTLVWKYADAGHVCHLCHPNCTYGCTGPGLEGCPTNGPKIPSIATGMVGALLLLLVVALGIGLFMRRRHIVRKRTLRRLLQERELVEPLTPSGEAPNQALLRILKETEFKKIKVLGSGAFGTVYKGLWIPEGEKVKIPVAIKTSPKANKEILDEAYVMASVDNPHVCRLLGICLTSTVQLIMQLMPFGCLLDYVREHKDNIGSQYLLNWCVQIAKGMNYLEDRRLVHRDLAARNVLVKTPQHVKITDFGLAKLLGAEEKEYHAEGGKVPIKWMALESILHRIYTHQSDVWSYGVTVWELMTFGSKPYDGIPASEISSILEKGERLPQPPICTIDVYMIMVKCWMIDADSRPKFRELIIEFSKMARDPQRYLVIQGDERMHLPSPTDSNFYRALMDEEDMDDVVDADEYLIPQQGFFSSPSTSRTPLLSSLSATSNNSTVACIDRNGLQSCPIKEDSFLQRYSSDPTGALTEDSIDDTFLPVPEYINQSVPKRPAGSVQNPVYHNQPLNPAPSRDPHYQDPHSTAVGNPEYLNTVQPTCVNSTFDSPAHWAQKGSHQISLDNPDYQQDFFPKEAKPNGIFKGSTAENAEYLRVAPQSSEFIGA
The following applies: BaF3 cells stably transfected with EGFR Δ19Del/T790M, read-out: IC50, growth inhibition, Δ19Del/T790M. Here is the method:
as §1, §2, §3, §4, §5

Assay [4] concerns the target T4, various mutants of kinase EGFR (BaF3 cell lines stably transfected with kinase) (Homo sapiens, UniProt P00533, T790M/C797S, form not given).
T4 construct: other: BaF3 cells stably transfected with EGFR Δ19Del/T790M/C797S; MTS, 48; other: BaF3 cell line stably transfected with EGFR Δ19Del/T790M/C7
The following applies: BaF3 cells stably transfected with EGFR Δ19Del/T790M/C797S, read-out: IC50, growth inhibition, Δ19Del/T790M/C797S. The protocol:
as §1, §2, §3, §4, §5

For assay [5], the target named is T5, various mutants of kinase EGFR (BaF3 cell lines stably transfected with kinase) (Homo sapiens, UniProt P00533, L858R/T790M).
T5 construct: expressed in transfected cells; host or cells: BaF3
T5 sequence (P00533 25-1210 T790M/L858R): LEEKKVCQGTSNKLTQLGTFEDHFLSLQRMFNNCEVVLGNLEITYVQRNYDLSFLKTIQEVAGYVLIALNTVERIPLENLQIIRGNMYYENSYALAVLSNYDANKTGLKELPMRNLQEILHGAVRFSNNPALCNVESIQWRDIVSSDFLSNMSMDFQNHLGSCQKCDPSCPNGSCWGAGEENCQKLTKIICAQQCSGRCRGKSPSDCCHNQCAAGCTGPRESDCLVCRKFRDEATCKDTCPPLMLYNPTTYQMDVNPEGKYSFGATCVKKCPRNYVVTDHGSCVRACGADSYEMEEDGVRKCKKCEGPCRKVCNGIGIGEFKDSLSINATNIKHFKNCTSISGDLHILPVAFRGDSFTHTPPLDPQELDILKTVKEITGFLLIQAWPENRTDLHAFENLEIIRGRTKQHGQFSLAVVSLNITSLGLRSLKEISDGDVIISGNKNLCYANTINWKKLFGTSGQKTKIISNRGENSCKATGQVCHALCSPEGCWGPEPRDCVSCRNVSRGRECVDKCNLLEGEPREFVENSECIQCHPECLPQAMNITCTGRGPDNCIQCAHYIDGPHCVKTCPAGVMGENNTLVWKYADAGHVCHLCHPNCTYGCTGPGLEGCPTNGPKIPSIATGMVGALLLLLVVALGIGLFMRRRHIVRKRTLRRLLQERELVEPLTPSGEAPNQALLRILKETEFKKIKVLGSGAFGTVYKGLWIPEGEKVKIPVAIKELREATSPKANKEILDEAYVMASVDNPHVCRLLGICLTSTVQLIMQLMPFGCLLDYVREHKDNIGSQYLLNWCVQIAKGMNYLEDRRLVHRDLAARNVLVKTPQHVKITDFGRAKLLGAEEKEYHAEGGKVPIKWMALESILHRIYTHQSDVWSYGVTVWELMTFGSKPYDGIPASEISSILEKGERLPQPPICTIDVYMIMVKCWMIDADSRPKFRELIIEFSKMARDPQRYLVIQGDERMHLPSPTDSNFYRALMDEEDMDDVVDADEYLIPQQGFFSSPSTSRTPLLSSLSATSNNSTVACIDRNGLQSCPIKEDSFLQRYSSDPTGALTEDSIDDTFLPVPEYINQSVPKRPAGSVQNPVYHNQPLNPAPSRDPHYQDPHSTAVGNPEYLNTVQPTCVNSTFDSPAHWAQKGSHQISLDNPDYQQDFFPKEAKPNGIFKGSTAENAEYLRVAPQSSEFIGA
The settings on record: BaF3 cells stably transfected with EGFR L858R/T790M, read-out: IC50, growth inhibition, L858R/T790M. Here is the method:
as §1, §2, §3, §4, §5

The target of assay [6] is T6, various mutants of kinase EGFR (BaF3 cell lines stably transfected with kinase) (Homo sapiens, UniProt P00533).
T6 construct: other: BaF3 cells stably transfected with EGFR Δ19Del; MTS, 48 h; other: BaF3 cell line stably transfected with EGFR Δ19Del
The settings on record: BaF3 cells stably transfected with EGFR Δ19Del, read-out: IC50, growth inhibition, Δ19Del. The protocol:
as §1, §2, §3, §4, §5

T4 sequence (P00533 with tags, fused parts or gaps DEL746-750/T790M/C797S, form open): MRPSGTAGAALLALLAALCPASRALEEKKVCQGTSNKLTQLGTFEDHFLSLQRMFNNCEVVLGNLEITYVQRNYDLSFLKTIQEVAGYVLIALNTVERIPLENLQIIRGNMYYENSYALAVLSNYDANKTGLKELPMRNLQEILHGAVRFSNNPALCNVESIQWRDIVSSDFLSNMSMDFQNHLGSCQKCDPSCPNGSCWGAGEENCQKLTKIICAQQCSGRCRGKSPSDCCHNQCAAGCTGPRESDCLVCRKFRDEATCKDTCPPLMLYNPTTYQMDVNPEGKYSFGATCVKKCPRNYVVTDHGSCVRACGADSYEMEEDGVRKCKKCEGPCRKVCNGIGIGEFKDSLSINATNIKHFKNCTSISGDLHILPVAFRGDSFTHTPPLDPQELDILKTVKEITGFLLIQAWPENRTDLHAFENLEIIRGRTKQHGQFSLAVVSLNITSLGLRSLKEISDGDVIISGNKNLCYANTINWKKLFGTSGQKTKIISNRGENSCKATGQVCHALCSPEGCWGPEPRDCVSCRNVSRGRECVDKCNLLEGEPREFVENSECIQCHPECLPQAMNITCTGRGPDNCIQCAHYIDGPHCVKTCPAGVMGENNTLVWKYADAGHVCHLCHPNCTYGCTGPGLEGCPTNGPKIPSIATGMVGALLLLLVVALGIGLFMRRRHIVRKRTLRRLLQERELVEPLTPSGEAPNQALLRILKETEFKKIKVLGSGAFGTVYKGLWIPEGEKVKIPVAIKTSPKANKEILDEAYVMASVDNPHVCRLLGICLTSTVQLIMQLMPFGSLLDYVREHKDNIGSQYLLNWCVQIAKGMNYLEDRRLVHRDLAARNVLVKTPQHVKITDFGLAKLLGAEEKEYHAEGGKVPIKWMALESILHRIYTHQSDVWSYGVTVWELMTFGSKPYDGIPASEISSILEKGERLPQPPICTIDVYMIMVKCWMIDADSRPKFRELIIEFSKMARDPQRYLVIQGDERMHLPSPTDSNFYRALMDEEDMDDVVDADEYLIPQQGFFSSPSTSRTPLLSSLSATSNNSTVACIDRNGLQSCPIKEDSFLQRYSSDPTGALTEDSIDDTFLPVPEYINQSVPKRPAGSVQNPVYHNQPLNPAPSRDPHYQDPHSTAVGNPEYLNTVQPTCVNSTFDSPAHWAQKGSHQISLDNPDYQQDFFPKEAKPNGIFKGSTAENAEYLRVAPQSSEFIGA

In the case of `C=Cc1cc(Nc2ncc(Cl)c(Nc3ccc4nccnc4c3N(C)S(C)(=O)=O)n2)c(OC(F)(F)F)cc1N1CCC(N2CCN(C)CC2)CC1` [Compound I-23], the IC50 in assay [1], in assay [2], in assay [3], in assay [4], in assay [5] and in assay [6] was at most 50 nM each time.
Regarding `COc1cc(N2CCC(N3CCN(C)CC3)CC2)ccc1Nc1ncc(F)c(Nc2ccc3nccnc3c2N(C)S(C)(=O)=O)n1` [Compound I-24], the IC50 in assay [1], in assay [2], in assay [3], in assay [4], in assay [5] and in assay [6] was 50 to 500 nM throughout.
On to `COc1cc(N2CCC(N3CCN(C)CC3)CC2)c(C)cc1Nc1ncc(F)c(Nc2ccc3nccnc3c2N(C)S(C)(=O)=O)n1` [Compound I-25], for which the IC50 was at most 50 nM in assay [1]; at most 50 nM in assay [2]; 50 to 500 nM in assay [3]; at most 50 nM in assay [4]; at most 50 nM in assay [5]; at most 50 nM in assay [6].
With `CCc1cc(Nc2ncc(F)c(Nc3ccc4nccnc4c3N(C)S(C)(=O)=O)n2)c(OC)cc1N1CCC(N2CCN(C)CC2)CC1` [Compound I-26], the IC50 in assay [1], in assay [2], in assay [3], in assay [4], in assay [5] and in assay [6] was at most 50 nM in each case.
`COc1cc(N2CCC(N3CCN(C)CC3)CC2)ccc1Nc1ncc(C#N)c(Nc2ccc3nccnc3c2N(C)S(C)(=O)=O)n1` [Compound I-27]: the IC50 in assay [1] fell in the range of 50 to 500 nM; in assay [2], 500 to 2500 nM; in assay [3] it was 500 to 2500 nM; in assay [4], 500 to 2500 nM; in assay [5], 500 to 2500 nM; in assay [6], 500 to 2500 nM.
With `COc1cc(N2CCC(N3CCN(C)CC3)CC2)c(C)cc1Nc1ncc(C#N)c(Nc2ccc3nccnc3c2N(C)S(C)(=O)=O)n1` [Compound I-28], the IC50 in assay [1], in assay [2], in assay [3], in assay [4], in assay [5] and in assay [6] was 50 to 500 nM in each case.
`CCc1cc(Nc2ncc(C#N)c(Nc3ccc4nccnc4c3N(C)S(C)(=O)=O)n2)c(OC)cc1N1CCC(N2CCN(C)CC2)CC1` [Compound I-29]: the IC50 is 50 to 500 nM in assay [1]; at most 50 nM in assay [2]; 50 to 500 nM in assay [3]; 50 to 500 nM in assay [4]; 50 to 500 nM in assay [5]; 50 to 500 nM in assay [6].
On to `COc1cc(N2CCC(N3CCN(C)CC3)CC2)ccc1Nc1ncc([N+](=O)[O-])c(Nc2ccc3nccnc3c2N(C)S(C)(=O)=O)n1` [Compound I-30], for which the IC50 lay in the range of 500 to 2500 nM in assay [1]; 500 to 2500 nM in assay [2]; 500 to 2500 nM in assay [3]; 50 to 500 nM in assay [4]; 50 to 500 nM in assay [5]; 500 to 2500 nM in assay [6].
For `COc1cc(N2CCC(N3CCN(C)CC3)CC2)c(C)cc1Nc1ncc([N+](=O)[O-])c(Nc2ccc3nccnc3c2N(C)S(C)(=O)=O)n1` [Compound I-31], the IC50 is at most 50 nM in assay [1]; at most 50 nM in assay [2]; 50 to 500 nM in assay [3]; at most 50 nM in assay [4]; at most 50 nM in assay [5]; 50 to 500 nM in assay [6].
With `CCc1cc(Nc2ncc([N+](=O)[O-])c(Nc3ccc4nccnc4c3N(C)S(C)(=O)=O)n2)c(OC)cc1N1CCC(N2CCN(C)CC2)CC1` [Compound I-32], the IC50 in assay [1], in assay [2], in assay [3], in assay [4], in assay [5] and in assay [6] was at most 50 nM throughout.
Consider `COc1cc(N2CCC(N3CCN(C)CC3)CC2)ccc1Nc1ncc(C(F)(F)F)c(Nc2ccc3nccnc3c2N(C)S(C)(=O)=O)n1` [Compound I-33], for which the IC50 in assay [1] was at most 50 nM; in assay [2] it was 50 to 500 nM; in assay [3] it was at most 50 nM; in assay [4], at most 50 nM; in assay [5], at most 50 nM; in assay [6], 50 to 500 nM.
As for `COc1cc(N2CCC(N3CCN(C)CC3)CC2)c(C)cc1Nc1ncc(C(F)(F)F)c(Nc2ccc3nccnc3c2N(C)S(C)(=O)=O)n1` [Compound I-34], the IC50 in assay [1], in assay [2], in assay [3], in assay [4], in assay [5] and in assay [6] was at most 50 nM each time.
With `CCc1cc(Nc2ncc(C(F)(F)F)c(Nc3ccc4nccnc4c3N(C)S(C)(=O)=O)n2)c(OC)cc1N1CCC(N2CCN(C)CC2)CC1` [Compound I-35], the IC50 in assay [1], in assay [2], in assay [3], in assay [4], in assay [5] and in assay [6] was at most 50 nM throughout.
For the compound `Cc1cc(Nc2ncc(Br)c(Nc3ccc4nccnc4c3N(C)S(C)(=O)=O)n2)c(OC(C)C)cc1C1CCN(C)CC1` [Compound I-37], the IC50 in assay [1] was 500 to 2500 nM; in assay [2], 50 to 500 nM; in assay [3], 50 to 500 nM; in assay [4], at most 50 nM; in assay [5] it was 50 to 500 nM; in assay [6], 500 to 2500 nM.
In the case of `COc1cc(N2CCN(C)CC2)ccc1Nc1ncc(Br)c(Nc2ccc3nccnc3c2N(C)S(C)(=O)=O)n1` [Compound I-38], the IC50 in assay [1] is 50 to 500 nM; in assay [2], at most 50 nM; in assay [3], at most 50 nM; in assay [4], at most 50 nM; in assay [5], at most 50 nM; in assay [6], 50 to 500 nM.
In the case of `CCOc1cc(N2CCN(C)CC2)ccc1Nc1ncc(Br)c(Nc2ccc3nccnc3c2N(C)S(C)(=O)=O)n1` [Compound I-39], the IC50 in assay [1] is 500 to 2500 nM; in assay [2], at most 50 nM; in assay [3], 50 to 500 nM; in assay [4], at most 50 nM; in assay [5], 50 to 500 nM; in assay [6], 500 to 2500 nM.
As for `CN1CCN(c2ccc(Nc3ncc(Br)c(Nc4ccc5nccnc5c4N(C)S(C)(=O)=O)n3)cc2)CC1` [Compound I-40], the IC50 in assay [1], in assay [2], in assay [3], in assay [4], in assay [5] and in assay [6] was at most 50 nM throughout.
As for `COc1cc(N2CCC(N3CCCC3)CC2)ccc1Nc1ncc(Br)c(Nc2ccc3nccnc3c2N(C)S(C)(=O)=O)n1` [Compound I-41], the IC50 in assay [1], in assay [2], in assay [3], in assay [4], in assay [5] and in assay [6] was at most 50 nM in each case.
Regarding `COc1cc(N2CCC(N(C)C)C2)ccc1Nc1ncc(Br)c(Nc2ccc3nccnc3c2N(C)S(C)(=O)=O)n1` (stereo not drawn) [Compound I-43], the IC50 was 50 to 500 nM in assay [1]; at most 50 nM in assay [2]; at most 50 nM in assay [3]; at most 50 nM in assay [4]; at most 50 nM in assay [5]; 50 to 500 nM in assay [6].
On to `COc1cc(N2CCC(O)CC2)ccc1Nc1ncc(Br)c(Nc2ccc3nccnc3c2N(C)S(C)(=O)=O)n1` [Compound I-44], for which the IC50 is 50 to 500 nM in assay [1]; at most 50 nM in assay [2]; at most 50 nM in assay [3]; at most 50 nM in assay [4]; at most 50 nM in assay [5]; 50 to 500 nM in assay [6].

Source of the values: US20230310428A1, “EGFR INHIBITOR AND PREPARATION METHOD AND USE THEREOF” (HONGYUN BIOTECH CO., LTD., priority 2020, published 2023).
